From patent US20070191437A1, “Continuous Dosing Regimen” (priority 2003, published 2007)
Marks after values point to notes of the source that are not given here.

Assays:
[1] = system: NCI-H460 human non-small cell lung carcinoma; experiment: NCI-H460 xenograft model; assay type: in vivo; conditions: for activity: comparators
Source text: NCI-H460 is a human non-small cell lung carcinoma derived cell line. It is MDR negative, has wild type p53, and contains an oncogenic K-ras mutation.

[2] = system: HCT-15 human colon carcinoma; experiment: HCT-15 human colon carcinoma xenografts; assay type: in vivo; conditions: for efficacy in inhibiting tumor growth: MDR positive line
Source text: HCT-15 is a human colon carcinoma derived cell line. It is MDR positive, and expresses both mutant p53 and oncogenic K-ras. The HCT-15 cell line has one of the highest levels of mdr-1/P-glycoprotein expression of cells from the NCI tumor cell line panel.

[3] = system: M5076 murine reticulum cell sarcoma; conditions: for ILS / response of the model to the drug: comparator drugs, dose not given
Calu-6 lung = Calu-6 lung subcutaneous flank xenografts in male nude mice, HPM with cisplatin (Example 6); assay type: in vivo; conditions: 10 mg/kg/day i.p., q.d × 1
Description: In a non-small cell lung cancer study, tumor cells were inoculated s.c. into male nude mice on day 0. On day 10, mice bearing established tumors were size matched at about 233 mm^3 and placed into the following groups: • 1. […]., 5 days on, 5 days off ×2) • 2. PM-75 mg/kg/day (p.o., q.d., 5 days on, 5 days off×2) • 3. PM-0 mg/kg/day (p.o., q.d., 5 days on, 5 days off ×2) • 4. […] Cisplatin 0 mg/kg/day (ip, qd ×1) • 6. […] Combination Therapy Vehicles

C26 colon tumors = C26 colon tumors grown in the flank of CDF-1 mice; assay type: in vivo
HT-29 colon carcinoma = experiment: Staged human tumor xenograft, HT-29; assay type: in vivo; conditions: oral 75 mg/kg/d QD, d 10-14, 20-24
Source text: (§1) (2-((hydroxyphenyl)amino)pyrid-3-yl)-4-methoxybenzenesulfonamide inhibited the growth of a variety of human tumor xenografts that were allowed to grow into established tumors prior to the initiation of treatment. As summarized below, activity was seen against established tumors derived from colon, breast and lung carcinomas. (2-((4-hydroxyphenyl)amino)pyrid-3-yl)-4-methoxybenzenesulfonamide was also active against a human pancreatic tumor xenograft grown in the orthotopic site.

Calu-6 lung carcinoma = experiment: Staged human tumor xenograft, Calu-6; assay type: in vivo; conditions: oral 75 mg/kg/d QD, d 10-14, 20-24
Source text: as §1

[4] = system: MDA-MB-468 breast carcinoma; experiment: Staged human tumor xenograft, MDA-MB-468; assay type: in vivo
Source text: as §1

[5] = Clinical single dose and 5-day repeated dose study in 57 cancer subjects; assay type: in vivo, human
Description: (2-((4-hydroxyphenyl)amino)pyrid-3-yl)-4-methoxybenzenesulfonamide was evaluated in 57 cancer subjects in single dose (16 subjects) and 5-day repeated dose regimens (41 subjects). The doses administered in the single dose segment were 80 to 480 mg/m^2/day. In the 5-day repeated dose regimen (2-((4-hydroxyphenyl)amino)pyrid-3-yl)-4-methoxybenzenesulfonamide was given at 30 to 240 mg/m^2/day for a single cycle. […] Adverse drug reactions from the single dose and 5-day repeated dose segments included nausea and vomiting, diarrhea, epigastric pain, ileus and evidence of peripheral neuropathy. For the single dose segment, the dose limiting toxicity (DLT) was Grade 3 peripheral neuropathy in 1 of 5 subjects at 480 mg/m^2/day. In the 5-day repeated dose regimen the dose limiting toxicities were Grade 3 peripheral neuropathy in 1 of 4 subjects at 210 mg/m^2/day and Grade 4 intestinal paralysis in 1 of 4 subjects at 210 mg/m^2/day and in 1 of 6 subjects at 240 mg/m^2/day.

[6] = Clinical 7-day QD regimen, MTD determination; assay type: in vivo
Description: In the 7-day QD regimen, the 250 mg QD dose has been determined to be the MTD, as dose limiting toxicities of peripheral neuropathy/ileus were reported in 2 of 6 subjects at the 300 mg QD dose.

[7] = Clinical 21-day QD regimen, MTD determination; assay type: in vivo
[8] = Clinical safety review, adverse events by grade; assay type: in vivo, human
Description: For 134 patients tested, at doses of about 200 mg QD, 250 mg QD, 300 mg QD, 125 mg BID, 150 mg BID, and 175 mg BID, 16 reported anemia, of which 11 were Grades I or II and 5 were Grades (III or IV); 1 reported Grade I or II alpoecia; 8 reported Grade I or II neutropenia; and none reported fluid retention, for which Grade I is defined as mild, Grade II is defined as moderate, Grade III is defined as severe, Grade IV is defined as life threatening.

[9] = Calu-6 flank xenograft model in male scid mice, HPM with docetaxel (Example 1); assay type: in vivo; conditions: male, scid, mouse, in vivo
Description: (§2) Male scid mice (Charles River Labs.) were injected subcutaneously with 0.2 mL of 2×10^6 Calu-6 cells (1:1 with matrigel) on study day 0. The cellular implantation site was the right flank, and all mice were ear tagged. On day 13, tumors were size matched to 247 mm^3 and animals were placed into the therapy groups outlined in the study design below. All treatments were initiated on day 13 post tumor inoculation. The tumors were measured with calipers 2 times per week after tumors were palpable. Tumor volumes were calculated according to the formula V=L×W^2/2 (V: volume, mm^3; L: length, mm. W: width, mm). Mouse group weights were taken 2 times per week to monitor weight loss from toxicity or excessive tumor burden. The mice were humanely euthanized when the tumor volumes reached a predetermined size. The study design was as follows:
(§3) 1. HPM vehicle and docetaxel at 20 mg/kg/day.
(§4) 2. HPM vehicle and docetaxel at 10 mg/kg/day.
(§5) 3. HPM at 100 mg/kg/day and docetaxel vehicle.
(§6) 4. HPM at 75 mg/kg/day and docetaxel vehicle.
(§7) 5. HPM at 100 mg/kg/day and docetaxel at 20 mg/kg/day.
(§8) 6. HPM at 100 mg/kg/day and docetaxel at 10 mg/kg/day.
(§9) 7. HPM at 75 mg/kg/day and docetaxel at 20 mg/kg/day.
(§10) 8. HPM at 75 mg/kg/day and docetaxel at 10 mg/kg/day.
(§11) 9. HPM vehicle and docetaxel vehicle.
(§12) HPM was dosed orally on a (q.d.×5, 5 days off)×2 schedule. The drug was formulated in 1% HCl, 4% ethanol, and 95% D5W. Docetaxel was dosed intravenously, (q.10d.)×2 and formulated in saline.

MiaPaCa2 pancreatic = MiaPaCa2 pancreatic xenograft model, combination with gemcitabine; assay type: in vivo; conditions: in combination with gemcitabine
[10] = molecular target: biotinylated bovine brain tubulin; conditions: competition of [3H]colchicine
Calu-6 cells = experiment: Calu-6 flank xenograft model in male scid mice, HPM with docetaxel (Example 1); assay type: in vivo; conditions: docetaxel q.10d. at 20 mg/kg/day
Description: as §2, §3, §4, §5, §6, §7, §8, §9, §10, §11, §12

MDA-MB-468 breast = MDA-MB-468 breast subcutaneous flank xenografts in female nude mice, HPM with docetaxel (Example 3); assay type: in vivo; conditions: 33.3 mg/kg/day i.v., q.d × 1
Description: Tumor cells derived from serially passaged tumor fragments were inoculated s.c. in female nude mice on day 0. On day 10, mice bearing established tumors were size matched at about 231 mm^3 and divided into the following groups:
1. HPM at 100 mg/kg/day (p.o., q.d., 5 days on, 5 days off ×2)
2. HPM at 75 mg/kg/day (p.o., q.d., 5 days on, 5 days off ×2)
3. HPM at 0 mg/kg/day (p.o., q.d., 5 days on, 5 days off ×2)
4. Docetaxel at 33.3 mg/kg/day (i.v., q.d. ×1)
5. Docetaxel at 0 mg/kg/day (i.v., q.d. ×1)
6. Combination therapy: HPM at 100 mg/kg/day and docetaxel at 33.3 mg/kg/day
7. Combination therapy: HPM at 75 mg/kg/day and docetaxel at 33.3 mg/kg/day

[11] = 5-day repeated dose regimen, 210 mg/m^2/day
[12] = 134 patients, 200-300 mg QD, 125-175 mg BID

SMILES: CC[C@]1(O)C[C@H]2CN(CCc3c([nH]c4ccccc34)[C@@](C(=O)OC)(c3cc4c(cc3OC)N(C=O)[C@H]3[C@@](O)(C(=O)OC)[C@H](OC(C)=O)[C@]5(CC)C=CCN6CC[C@]43[C@@H]65)C2)C1 [vincristine, reference compound]
- activity [1]: lacked activity
- efficacy in inhibiting tumor growth [2]: not efficacious
- ILS [3]: 17%

SMILES: N.N.[Cl][Pt][Cl] [Cisplatin, cisplatin]
- % TGD^a: median % TGD increase compared to vehicle treated controls in time to 1 cc (Calu-6 lung): 71*** %

SMILES: COc1ccc(S(=O)(=O)Nc2cccnc2Nc2ccc(O)cc2)cc1 [ABT-751, N-(2-((4-Hydroxyphenyl)amino)pyridin-3-yl)-4-methoxybenzenesulfonamide]
- antitumor activity (C26 colon tumors; 5-day schedule): only marginally active
- antitumor activity (C26 colon tumors; extended dosing, equivalent to BCNU at the MTD): significant antitumor response
- T/C, mean tumor volume at day 13 ([1]; day 13 vs vehicle control): 58%
- ILS (delay in tumor growth) ([1]; in vivo): 32%
- % ILS ([2]; 50 mg/kg/d PO, QD, days 1-8): 34%
- T/C (no. trials) ([2]; 50 mg/kg/d PO, QD, days 1-8): 50(2)
- efficacy in inhibiting tumor growth [2]: effective in inhibiting tumor growth
- % ILS (HT-29 colon carcinoma): 50%
- % ILS (Calu-6 lung carcinoma): 58%
- % T/C ([4]; oral 50 mg/kg/d QD, d 1-21): 46%
- % T/C ([4]; oral 75 mg/kg/d QD, d 10-14, 20-24): 33%
- % T/C ([4]; oral 100 mg/kg/d QD, d 10-14, 20-24): 25%
- dose limiting toxicity: Grade 3 peripheral neuropathy, subjects [5, 11]: 1 of 4
- dose limiting toxicity: Grade 4 intestinal paralysis, subjects [5, 11]: 1 of 4
- dose limiting toxicity: Grade 4 intestinal paralysis, subjects ([5]; 5-day repeated dose regimen, 240 mg/m^2/day): 1 of 6
- AUC versus dose ([5]; range of 30 to 480 mg/m^2/day): increased proportionally with dose
- accumulation ([5]; range of 30 to 480 mg/m^2/day): no apparent accumulation
- dose limiting toxicity: Grade 3 peripheral neuropathy, subjects ([5]; single dose segment, 480 mg/m^2/day): 1 of 5
- MTD ([6]; 7-day QD regimen): 250 mg
- dose limiting toxicities of peripheral neuropathy/ileus, subjects ([6]; human, in vivo, 7 days): 2 of 6
- MTD ([7]; QD regimen given for 21 days): 200 mg
- dose limiting toxicities of fatigue, anorexia and suspect small bowel obstruction, subjects ([7]; human, in vivo, 21 days): 2/3
- patients who reported Grade I or II alopecia [8, 12]: 1
- patients who reported Grade I or II neutropenia [8, 12]: 8
- patients who reported anemia [8, 12]: 16
- patients who reported fluid retention [8, 12]: none
- patients with anemia of Grades I or II [8, 12]: 11
- patients with anemia of Grades III or IV [8, 12]: 5
- myelosuppression, renal or hepatic toxicity ([8]; review of the safety data of the three studies): no significant myelosuppression, renal or hepatic toxicity
- MTD ([9]; po, HPM orally (q.d.×5, 5 days off)×2, mice): 100 mg/kg/day
- antitumor activity compared to single agent alone (MiaPaCa2 pancreatic): increase in antitumor activity
- ILS (percent increase in life span) ([3]; 150 mg/kg orally once a day for 5 days): 42%
- approximate MTD ([3]; orally once a day for 5 days): ~150 mg/kg

SMILES: CC[C@]1(O)C[C@@H]2CN(CCc3c([nH]c4ccccc34)[C@@](C(=O)OC)(c3cc4c(cc3OC)N(C)[C@H]3[C@@](O)(C(=O)OC)[C@H](OC(C)=O)[C@]5(CC)C=CCN6CC[C@]43[C@@H]65)C2)C1 [vinblastine]
- Ki [10]: > 100 µM

SMILES: O=P1(N(CCCl)CCCl)NCCCO1 (centres unmarked) [cyclophosphamide]
- response of the model to the drug [3]: sensitive

SMILES: CC(=O)O[C@@]12CO[C@@H]1C[C@H](O)[C@@]1(C)C(=O)[C@H](O)C3=C(C)[C@@H](OC(=O)[C@H](O)[C@@H](NC(=O)OC(C)(C)C)c4ccccc4)C[C@@](O)([C@@H](OC(=O)c4ccccc4)[C@H]21)C3(C)C [docetaxel]
- MTD ([9]; intravenous, docetaxel on a q.10d.×2 schedule, mice): 25 mg/kg/day
- maximum wt loss (Calu-6 cells): 8%
- % TGD^a: median % TGD increase compared to vehicle treated controls in time to 1 cc (MDA-MB-468 breast): 67*** %

SMILES: CC(=O)O[C@H]1C(=O)[C@@]2(C)[C@H]([C@H](OC(=O)c3ccccc3)[C@]3(O)C[C@H](OC(=O)[C@H](O)[C@@H](NC(=O)c4ccccc4)c4ccccc4)C(C)=C1C3(C)C)[C@]1(OC(C)=O)CO[C@@H]1C[C@@H]2O [paclitaxel, reference compound]
- antitumor activity (C26 colon tumors; comparator, dose not given): not efficacious
- activity [1]: lacked activity
- efficacy in inhibiting tumor growth [2]: not efficacious
- response of the model to the drug [3]: resistant

SMILES: COc1cccc2c1C(=O)c1c(O)c3c(c(O)c1C2=O)C[C@@](O)(C(=O)CO)C[C@@H]3O[C@H]1C[C@H](N)[C@H](O)[C@H](C)O1 [doxorubicin]
- ILS [3]: 13%
